From patent US20250074892A1, “CARBONYL BRIDGED HETEROCYCLIC COMPOUND, AND COMPOSITION AND APPLICATION THEREOF” (BEIJING SCITECH-MQ PHARMACEUTICALS LIMITED, priority 2022, published 2025)
Like-named read-outs stand apart in the source and are kept apart here.

Columns and labels:
HT29 cells = assay: Inhibition of cell necrosis (CCK8 method), HT29 cells; assay type: cell-based, human; conditions: Homo sapiens, HT-29, 16 h, HT29, Human TNF-α/AT-406/Z-VAD-FMK, 16 hours, CCK8
How it was run: (§1)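 HT29 (1.2×10^4/well) and L929 (2.0×10^4/well) cells were pretreated 30 min with compound, 9-point 4-fold series from 10 μM in duplicate. Necrosis was induced with human TNF-α 20 ng/mL, AT-406 […] and Z-VAD-FMK 20 μM for 16 h (HT29), or murine TNF-α 20 ng/mL and Z-VAD-FMK 25 μM for 4-8 h (L929). CCK8 viability; IC50 from dose-effect curve.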

L929 cells = assay: Inhibition of cell necrosis (CCK8 method), L929 cells; assay type: cell-based, mouse; conditions: Mus musculus, L929, L929, Murine TNF-α/Z-VAD-FMK, 4-8 hours, CCK8
How it was run: as §1

[1] = Rat PK&BBB (pharmacokinetics and brain penetration); assay type: in vivo, SD rats; conditions: for AUC(0-inf) / AUC(0-t) / Vd / half-life / clearance / Cmax / Tmax / bioavailability: SD; for clearance: read-out: Cl—obs; for bioavailability: PO 30 mg/kg vs IV 3 mg/kg; for Kp at 2 h / concentration at 2 h / concentration at 0 h / concentration at 0.083 h / concentration at 0.25 h / concentration at 0.5 h / concentration at 1 h / concentration at 4 h / concentration at 7 h / concentration at 24 h: Sprague-Dawley; for Kp at 2 h: brain / whole blood, read-out: Brain/blood ratio; for concentration at 2 h / concentration at 0 h / concentration at 0.083 h / concentration at 0.25 h / concentration at 0.5 h / concentration at 1 h / concentration at 4 h / concentration at 7 h / concentration at 24 h: rat
Experimental: (§2) In this assay, the pharmacokinetic characteristics and ability to penetrate the blood-brain barrier of the compounds of the present application were assayed after administration of some of the compounds of the present application to SD rats, CD-1 mice or beagle dogs by single oral administration and intravenous injection.
(§3) 1. Intravenous (IV) injection group: an appropriate amount of the assay compound was weighed, and completely dissolved in an appropriate volume of vehicle. The mixture was stirred, vortexed and/or sonicated. Once a solution was obtained, the vehicle was gradually added to a final volume to reach the target concentration. The solution was vortexed, and sonicated to obtain a homogeneous solution. The solution was filtered through a […] PVDF membrane.
(§4) 2. Oral (PO) group: an appropriate amount of the assay compound was weighed, and completely dissolved in an appropriate volume of vehicle. The mixture was stirred, vortexed and/or sonicated. Once a solution was obtained, the vehicle was gradually added to a final volume to reach the target concentration. The solution was vortexed, and sonicated to obtain a homogeneous solution.
(§5) Meanwhile, the IV group was not fasted and the PO group was fasted overnight (>12 hrs) and given food 2 hrs after drug administration. All animals had free access to water. The dosing regimen and pharmacokinetic sampling regimen are given in Table 10 and Table 11 below, respectively.
Rats were administered according to the above protocol, and blood and brain tissue samples were collected and processed at predetermined time points (collection and processing were performed according to conventional methods in the art).
(§6) The brain was weighed and homogenized by adding 4 times of ultrapure water. Six times volume of acetonitrile was added respectively to the whole blood samples and brain homogenate (20 times volume of acetonitrile was added to the whole blood sample of mouse PK). The mixture was vortexed for 1 min and then centrifuged at 4° C., 4500 rpm for 15 min. According to the instrument response, the supernatant was diluted with diluent and the sample was analyzed by LC/MS.
(§7) Pharmacokinetic parameters were calculated using WinNonlin software. The following pharmacokinetic parameters were calculated if appropriate plasma/whole blood drug concentration-time data were available: CL (clearance); Vd (apparent volume of distribution); T1/2 (elimination half-life time); Cmax (peak concentration); Tmax (time to peak); AUC (area under plasma drug concentration-time curve); MRT (mean retention time); F % (bioavailability).

[2] = Beagle PK (pharmacokinetics); assay type: in vivo, beagle dogs; conditions: whole blood, Beagle dog
Experimental: as §2, §3, §4, §5, §6, §7

[3] = PO 30 mg/kg, 2 h after administration
[4] = brain, po, 30 mg/kg, PO 30 mg/kg, 2 h after administration, read-out: Brain concentration
[5] = whole blood, iv, 3 mg/kg, IV 3 mg/kg, read-out: Blood drug concentration
[6] = whole blood, iv, 3 mg/kg, IV 3 mg/kg, 2 hr, read-out: Blood drug concentration
[7] = whole blood, po, 30 mg/kg, PO 30 mg/kg, read-out: Blood drug concentration
[8] = whole blood, po, 30 mg/kg, PO 30 mg/kg, 2 hr, read-out: Blood drug concentration
[9] = whole blood, po, 30 mg/kg, PO 30 mg/kg, whole blood, 2 h after administration, read-out: Blood drug concentration
[10] = IV 1 mg/kg, read-out: Blood drug concentration
[11] = PO 3 mg/kg, read-out: Blood drug concentration

SMILES: O=C(C1CCN(c2cc(-c3cc(OCCCO)ccc3F)ccn2)CC1)N1N=CCC1c1cc(F)cc(F)c1 (racemic) [Example 18, (5-(3,5-difluorophenyl)-4,5-dihydro-1H-pyrazol-1-yl)(1-(4-(2-fluoro-5-(3-hydroxypropoxy)phenyl)pyridin-2-yl)piperidin-4-yl)methanone]
- IC50 (HT29 cells): ≤ 10 nM
- IC50 (L929 cells): 50 to 100 nM
- AUC(0-inf) ([1]; whole blood, IV 3 mg/kg): 560 ± 62 ng·h/mL
- AUC(0-t) ([1]; whole blood, IV 3 mg/kg): 559 ± 62 ng·h/mL
- Vd ([1]; whole blood, IV 3 mg/kg): 8.24 ± 0.68 L/kg
- half-life ([1]; whole blood, IV 3 mg/kg): 1.06 ± 0.07 h
- clearance ([1]; whole blood, IV 3 mg/kg): 90.1 ± 10.7 mL/min/kg
- AUC(0-inf) ([1]; whole blood, PO 30 mg/kg): 967 ± 285 ng·h/mL
- AUC(0-t) ([1]; whole blood, PO 30 mg/kg): 922 ± 357 ng·h/mL
- Cmax ([1]; whole blood, PO 30 mg/kg): 309 ± 103 ng/mL
- Tmax ([1]; whole blood, PO 30 mg/kg): 1 h
- half-life ([1]; whole blood, PO 30 mg/kg): 3.1 ± 0.24 h
- bioavailability ([1]; whole blood): 17.3 ± 5.1%
- Kp at 2 h [1, 3]: 1.49
- concentration at 2 h [1, 4]: 397 ng/g
- concentration at 0 h [1, 5]: 0 ng/mL
- concentration at 0.083 h [1, 5]: 1170 ± 149 ng/mL
- concentration at 0.25 h [1, 5]: 571 ± 31 ng/mL
- concentration at 0.5 h [1, 5]: 275 ± 24 ng/mL
- concentration at 1 h [1, 5]: 94.7 ± 10.7 ng/mL
- concentration at 2 h [1, 6]: 25.5 ± 4.7 ng/mL
- concentration at 4 h [1, 5]: 4.13 ± 0.75 ng/mL
- concentration at 7 h [1, 5]: 0.927 ± 0.301 ng/mL
- concentration at 0 h [1, 7]: 0 ng/mL
- concentration at 0.25 h [1, 7]: 85.6 ± 26.6 ng/mL
- concentration at 0.5 h [1, 7]: 239 ± 47 ng/mL
- concentration at 1 h [1, 7]: 309 ± 103 ng/mL
- concentration at 2 h [1, 8]: 165 ± 90 ng/mL
- concentration at 4 h [1, 7]: 68.7 ± 31 ng/mL
- concentration at 7 h [1, 7]: 23.5 ± 5.2 ng/mL
- concentration at 24 h [1, 7]: 0.557 ng/mL
- concentration at 2 h [1, 9]: 266 ng/mL
- AUC(0-inf) ([2]; IV 1 mg/kg): 699 ± 474 ng·h/mL
- AUC(0-t) ([2]; IV 1 mg/kg): 682 ± 447 ng·h/mL
- Vd ([2]; IV 1 mg/kg): 2.42 ± 0.54 L/kg
- half-life ([2]; IV 1 mg/kg): 1.13 ± 0.65 h
- concentration at 0 hr [2, 10]: 0 ng/mL
- concentration at 0.083 hr ([2]; IV 1 mg/kg, 0.083 hr, read-out: Blood drug concentration): 843 ± 237 ng/mL
- concentration at 0.25 hr [2, 10]: 575 ± 222 ng/mL
- concentration at 0.5 h [2, 10]: 334 ± 229 ng/mL
- concentration at 1 h [2, 10]: 170 ± 148 ng/mL
- concentration at 2 h [2, 10]: 57.9 ± 63.2 ng/mL
- concentration at 4 h [2, 10]: 26 ± 24.1 ng/mL
- concentration at 7 h [2, 10]: 10 ng/mL
- clearance ([2]; IV 1 mg/kg, read-out: Cl—obs): 31.4 ± 17.4 mL/min/kg
- AUC(0-inf) ([2]; PO 3 mg/kg): 4240 ng·h/mL
- AUC(0-t) ([2]; PO 3 mg/kg): 4210 ng·h/mL
- Cmax ([2]; PO 3 mg/kg): 1460 ng/mL
- Tmax ([2]; PO 3 mg/kg): 1 h
- half-life ([2]; PO 3 mg/kg): 4.55 h
- bioavailability ([2]; PO 3 mg/kg vs IV 1 mg/kg): 183%
- concentration at 0 hr [2, 11]: 0 ng/mL
- concentration at 0.25 hr [2, 11]: 469 ng/mL
- concentration at 0.5 h [2, 11]: 1060 ng/mL
- concentration at 1 h [2, 11]: 1460 ng/mL
- concentration at 2 h [2, 11]: 932 ng/mL
- concentration at 4 h [2, 11]: 138 ng/mL
- concentration at 7 h [2, 11]: 82.4 ng/mL
- concentration at 24 h ([2]; PO 3 mg/kg, 24 hr, read-out: Blood drug concentration): 4.41 ng/mL

SMILES: O=C(C1CCN(c2cc(-c3cc(OCCCO)ccc3F)ccn2)CC1)N1N=CC[C@H]1c1cc(F)cc(F)c1 (racemic) [Example 40]
- IC50 (HT29 cells): ≤ 10 nM
- IC50 (L929 cells): 10 to 50 nM
- AUC(0-inf) ([1]; whole blood, IV 3 mg/kg): 592 ± 57 ng·h/mL
- AUC(0-t) ([1]; whole blood, IV 3 mg/kg): 588 ± 56 ng·h/mL
- Vd ([1]; whole blood, IV 3 mg/kg): 7.84 ± 0.5 L/kg
- half-life ([1]; whole blood, IV 3 mg/kg): 1.07 ± 0.08 h
- clearance ([1]; whole blood, IV 3 mg/kg): 85 ± 8.4 mL/min/kg
- AUC(0-inf) ([1]; whole blood, PO 30 mg/kg): 1970 ± 768 ng·h/mL
- AUC(0-t) ([1]; whole blood, PO 30 mg/kg): 1900 ± 868 ng·h/mL
- Cmax ([1]; whole blood, PO 30 mg/kg): 581 ± 228 ng/mL
- Tmax ([1]; whole blood, PO 30 mg/kg): 1.17 ± 0.76 h
- half-life ([1]; whole blood, PO 30 mg/kg): 2.84 ± 0.46 h
- bioavailability ([1]; whole blood): 33.2 ± 13%
- Kp at 2 h [1, 3]: 1.13
- concentration at 2 h [1, 4]: 309 ng/g
- concentration at 0 h [1, 5]: 0 ng/mL
- concentration at 0.083 h [1, 5]: 865 ± 45 ng/mL
- concentration at 0.25 h [1, 5]: 496 ± 33 ng/mL
- concentration at 0.5 h [1, 5]: 295 ± 29 ng/mL
- concentration at 1 h [1, 5]: 119 ± 14 ng/mL
- concentration at 2 h [1, 6]: 61.9 ± 8.5 ng/mL
- concentration at 4 h [1, 5]: 13.2 ± 5 ng/mL
- concentration at 7 h [1, 5]: 2.37 ± 0.77 ng/mL
- concentration at 0 h [1, 7]: 0 ng/mL
- concentration at 0.25 h [1, 7]: 185 ± 86 ng/mL
- concentration at 0.5 h [1, 7]: 416 ± 92 ng/mL
- concentration at 1 h [1, 7]: 547 ± 248 ng/mL
- concentration at 2 h [1, 8]: 372 ± 258 ng/mL
- concentration at 4 h [1, 7]: 109 ± 99 ng/mL
- concentration at 7 h [1, 7]: 59.8 ± 34.9 ng/mL
- concentration at 24 h [1, 7]: 0.93 ng/mL
- concentration at 2 h [1, 9]: 274 ng/mL
